We go through 24 molecules from US10709707B2, “Methods of treating ocular conditions” (Oyster Point Pharma, Inc., priority 2016, dated 2020).

Data set [1] deals with subjects (intranasal administration). Put plainly: Panel of compounds administered intranasally: effect on tearing and discomfort response.
Experimental: (§2) A panel of twenty compounds with various receptor binding profiles, including other nicotinic acetylcholine receptor (nAchR) agonists were tested. At the onset of the experiment, 50 microliters of a 0.01 mg/mL compound formulation was administered intranasally to three subjects.
For the next data set, the system named is formalin test. Kind of data set: Analgesic effects, formalin test. The format is in vivo, Mouse: CD-1. Particulars: Compound 1 0.1, 1 and 10 mg/kg, Aspirin 100 mg/kg, Morphine 30 mg/kg; for analgesic effects after formalin injection, Day 1: po.
Data set [2] has as its system STZ rat model of diabetic neuropathy. Put plainly: Mechanical allodynia, STZ rat model of diabetic neuropathy. Particulars: insulin-treated group. The format is in vivo, Rat: Sprague-Dawley.
The subject of data set [3] is subjects (intranasal administration). Particulars: in vivo.
Experimental: as §2
The nature of data set [4]: excretion of radioactivity in monkey. The format is in vivo. Particulars: for administered radioactive dose recovered in cage wash / administered radioactive dose recovered in diet debris / administered radioactive dose recovered in feces / administered radioactive dose recovered in urine / administered radioactive dose recovered, total: 168-hour period.
Data set [5] concerns cryopreserved hepatocytes. Kind of data set: 24-hour incubation in cryopreserved hepatocytes (human). Type of data set: in vitro ADME. From the text:
(§1) In human and monkey, the primary route of metabolism was through oxidation of the pyrrolidine ring (metabolite M02) before further metabolism via dioxidation to M1 or M3. In humans, parent accounted for 37% of extracellular radioactivity, M02 was 13.9%.M1 was 4.1% and M3 was 1.1%. In monkey, parent accounted for 14.2%, M02 was 5.0%, M1 was 5.8% and M3 was 29.4%. In the rat, the primary metabolite is an N-oxide-pyrimidine derivative (M9); it accounted for 71.9% of extracellular radioactivity while parent represented only 1.4%.

Data set [6] in a line: metabolism in vivo after single po dose in rats. The conditions noted are these: rat, 30 mg/kg. How it is done: The main metabolite in plasma and urine was M9; in plasma from 6 to 24 hours post-dose an unknown polar metabolite (M13) accounted for a significant portion of total radioactivity. In plasma, parent accounted for 11.7% of AUC0-24 total radioactivity, M9 accounted for 20.9% and M13 accounted for 15.9%. In urine (the primary route of elimination) over a 24 hours period, parent accounted for 17.8% of total radioactivity, M9 accounted for 37.7% and M13 accounted for 0.7%.

A short description of data set [7]: excretion of radioactivity in Sprague-Dawley rat. The conditions noted are these: 30 mg/kg po.
The nature of data set [8]: distribution studies with [14C]-Compound 1 in Long Evans and Sprague-Dawley rat. The format is in vivo. The text has this: In male and female Sprague-Dawley rats, tissue distribution appeared similar to that of the Long Evans rat.
Data set [9] relates to cryopreserved hepatocytes. Put plainly: 24-hour incubation in cryopreserved hepatocytes (monkey). Type of data set: in vitro ADME.
Excerpt: as §1

Data set [10] relates to cryopreserved hepatocytes. Kind of data set: 24-hour incubation in cryopreserved hepatocytes (rat). The format is in vitro ADME.
Excerpt: as §1

For data set [11], the system named is cryopreserved hepatocytes from rat, dog, monkey and human. Kind of data set: 24-hour incubation in cryopreserved hepatocytes, species comparison. Type of data set: in vitro ADME.
Excerpt: as §1

The test system of a further data set is behavioral sensitization. Put plainly: CNS safety pharmacology, behavioral sensitization by motor activity. The format is in vivo, Rat: Sprague-Dawley. The conditions noted are these: Compound 1 3, 10, 30 mg/kg po.
The subject of data set [12] is paclitaxel-induced neuropathy, allodynia. Kind of data set: Reversing symptoms of paclitaxel-induced neuropathy. The format is in vivo, Rat. Particulars: 100 mg/kg ip, 90 min before testing, Weeks 3 and 4 post-paclitaxel.
The mark [13] stands for this setting: 50 microliters intranasally, three subjects, 0.01 mg/mL increased logarithmically up to 10 mg/mL.

Read-outs that look alike come from different tables or passages of the source.

With `CC12CCC(CC1)C(C)(C)O2` [Eucaliptol], in data set [1] (setting [13]), the “Causes Tearing” value is listed as “No” and the “Discomfort Response” value is reported as “No”.
Turning to `CC(=O)Oc1ccccc1C(=O)O` [Aspirin], the “analgesic effects after formalin injection, Day 1” value in the data set with formalin test is “mg/kg) and Aspirin at 100 mg/kg failed”.
“insulin: insulin-treated group in the STZ rat model”: the “significant improvement in pain sensitivity” value in data set [2] is “glucose levels but no”.
Consider `Cc1ccc(C(C)C)cc1O` [Carvacrol], for which, in [1] (setting [13]), the “Causes Tearing” value is “Yes”. Moreover, the “Discomfort Response” value in [1] (in vivo) is reported as “Severe”.
In the case of `C=CCc1ccc(O)c(OC)c1` [Eugenol], in data set [1] (setting [13]), the “Causes Tearing” value is listed as “No” and the “Discomfort Response” value is “No”.
Regarding `O=c1cccc2n1C[C@@H]1CNC[C@H]2C1` [Cytisine], in data set [1] (in vivo), the “Causes Tearing” value is “Partial”. Also, the “Discomfort Response” value in [3] is on record as “Moderate”.
In the case of `C(=C\[C@H]1CCNC1)/c1cncnc1` [[^14C]-Compound 1], in data set [4] (5 mg/kg iv infusion), the “time by which nearly all recovered radioactivity was eliminated” value was not above 24 h, the “administered radioactive dose recovered in cage wash” value is given as 7.6%, the “administered radioactive dose recovered in diet debris” value turned out to be 6.9% and the “administered radioactive dose recovered in feces” value was found to be 7.6%. Besides, in data set [4] (5 mg/kg iv infusion), the “administered radioactive dose recovered in urine” value worked out at 70.7% and the “administered radioactive dose recovered, total” value is 93.0%. In data set [4] (10 mg/kg po), the “time by which nearly all recovered radioactivity was eliminated” value was not above 48 h, the “administered radioactive dose recovered in cage wash” value stood at 10.2%, the “administered radioactive dose recovered in diet debris” value turned out to be 6.6% and the “administered radioactive dose recovered in feces” value was 12.8%. For the same molecule, in [4] (10 mg/kg po), the “administered radioactive dose recovered in urine” value turned out to be 60.7% and the “administered radioactive dose recovered, total” value is 90.3%. In addition, the “share of extracellular radioactivity” value in data set [5] turned out to be 37%. For the same molecule, in [6], the “extent of metabolism in vivo” value was “extensively metabolized”, the “share of AUC0-24 total radioactivity in plasma” value is on record as 11.7% and the “share of total radioactivity in urine” value worked out at 17.8%. For the same molecule, in [7], the “time by which nearly all recovered radioactivity was eliminated” value is not above 24 h. Moreover, in data set [7] (168 hour period), the “administered dose recovered in feces” value came to 10.9% and the “administered dose recovered in urine” value is recorded as 77.6%. Moreover, in data set [7] (168 hour period post-dose), the “administered dose recovered, total” value stood at 91.2%. Further, the “tissue with highest concentration of radioactivity at final sampling time” value in [8] (male Long Evans rat, 1 mg/kg po, 168 hours) was “adrenal medulla”. In addition, the “tissue with highest concentration of radioactivity at final sampling time” value in data set [8] (male and female Sprague-Dawley rats, 30 mg/kg po, 24 hours) was “adrenal medulla”. For the same molecule, the “share of extracellular radioactivity” value in [9] was determined as 14.2%. The “share of extracellular radioactivity” value in data set [10] was 1.4%. The “species ranking of metabolism” value in data set [11] is on record as “rat>monkey>human>dog”. The extent of metabolism result in data set [11] (depending on species) is on record as “slightly to moderately metabolized”.
`CN1CC[C@]23c4c5ccc(O)c4O[C@H]2[C@@H](O)C=C[C@H]3[C@H]1C5` [Morphine]: in the data set on formalin test (once daily for 7 days po), the “analgesic activity after formalin injection, Day 7” value was “mg/kg) persisted on Day 7”. Besides, the “analgesic effects after formalin injection, Day 1” value in the data set with formalin test is on record as “mg/kg, po) produced a significant”.
Regarding `CN1CCCC1c1cccnc1` (stereo not drawn) [Nicotine], in data set [1] (setting [13]), the “Causes Tearing” value is “Yes”. In addition, in data set [3], the “Discomfort Response” value is “Severe”. The “behavioral sensitization (motor activity)” value in the data set with behavioral sensitization is “marked behavioral sensitization”.
Regarding `CC(C)=CCC/C(C)=C/CO` [Geraniol], in data set [1] (setting [13]), the “Causes Tearing” value was “No” and the “Discomfort Response” value is listed as “No”.
`O=C(N[C@H]1CN2CCC1CC2)c1cc2ccoc2cn1` [PHA-543613]: in data set [1] (setting [13]), the “Causes Tearing” value is on record as “No” and the “Discomfort Response” value is “No”.
With `CC12CCC(CC1=O)C2(C)C` (stereo not drawn) [Camphor], in data set [1] (setting [13]), the “Causes Tearing” value is “No” and the “Discomfort Response” value was “No”.
Turning to `CC1CCC(C(C)C)C(O)C1` (stereo not drawn) [Menthol], in [1] (setting [13]), the “Causes Tearing” value is “No” and the “Discomfort Response” value was “No”.
Turning to `CNCCc1ccccn1` [Betahistine], in [1] (setting [13]), the “Causes Tearing” value is given as “No” and the “Discomfort Response” value was “No”.
On to `COc1ccc(/C=C2\CCCN=C2c2cccnc2)c(OC)c1` [GTS-21], for which, in [1] (setting [13]), the “Causes Tearing” value is listed as “Yes” and the “Discomfort Response” value is given as “Severe”.
Consider `COc1cc(CNC(=O)CCCC/C=C/C(C)C)ccc1O` [Capsaicin], for which, in data set [1] (setting [13]), the “Causes Tearing” value is given as “Yes” and the “Discomfort Response” value was “Severe”.
In the case of `NCC1(CC(=O)O)CCCCC1` [Gabapentin, reference compound], the reversing allodynia in data set [12] is recorded as 100 mg/kg, was effective at reversing.
Consider `c1cnc2cc3c(cc2n1)[C@@H]1CNC[C@H]3C1` [Varenicline], for which, in data set [1] (setting [13]), the “Causes Tearing” value is reported as “Yes” and the “Discomfort Response” value is on record as “No”.
`CCOc1cc(C=O)ccc1O` [Ethylvanillin]: the “Causes Tearing” value in [1] (setting [13]) is reported as “No”.
As for `O=Cc1ccccc1` [Benzaldehyde], in [1] (setting [13]), the “Causes Tearing” value was “No” and the “Discomfort Response” value is recorded as “No”.
In the case of `CC(C)=C1CC[C@@H](C)CC1=O` [Pulegone], in data set [1] (setting [13]), the “Causes Tearing” value is on record as “No”. Besides, the “Discomfort Response” value in data set [1] (in vivo) is listed as “No”.
In the case of `Cc1cc([C@@H]2CCCN2C)on1` [ABT-418], in data set [1] (setting [13]), the “Causes Tearing” value is recorded as “Yes” and the “Discomfort Response” value is “Moderate”.
For `CC[N+](CC)(CC(=O)Nc1c(C)cccc1C)Cc1ccccc1` [Denatonium], in data set [1] (setting [13]), the “Causes Tearing” value is “No” and the “Discomfort Response” value is “No”.
Turning to `O=C(N[C@@H]1C2CCN(CC2)[C@H]1Cc1cccnc1)c1cc(F)cc(F)c1` [TC-6987], in data set [1] (setting [13]), the “Causes Tearing” value is on record as “No” and the “Discomfort Response” value is “No”.
